From ChEMBL document CHEMBL5518230, “Identification of a Novel Selective CDK9 Inhibitor for the Treatment of CRC: Design, Synthesis, and Biological Activity Evaluation” (J Med Chem, 2024)
Activity calls are given as the source filed them. The rule behind the calls is not given here.

How the values were obtained:
HCT-116 [1] = assay: Growth inhibition of human HCT-116 cells incubated for 48 hrs by CCK-8 assay; type: functional
CDK9/cyclin T1 = CDK9/cyclin T1 (Homo sapiens, UniProt P50750); assay: Inhibition of CDK9/Cyclin T1 (unknown origin) using PDKtide substrate incubated for 60 mins by ADP-Glo kinase assay; type: protein-complex assay
CDK9/cyclin T1, sequence (O60563 whole entry): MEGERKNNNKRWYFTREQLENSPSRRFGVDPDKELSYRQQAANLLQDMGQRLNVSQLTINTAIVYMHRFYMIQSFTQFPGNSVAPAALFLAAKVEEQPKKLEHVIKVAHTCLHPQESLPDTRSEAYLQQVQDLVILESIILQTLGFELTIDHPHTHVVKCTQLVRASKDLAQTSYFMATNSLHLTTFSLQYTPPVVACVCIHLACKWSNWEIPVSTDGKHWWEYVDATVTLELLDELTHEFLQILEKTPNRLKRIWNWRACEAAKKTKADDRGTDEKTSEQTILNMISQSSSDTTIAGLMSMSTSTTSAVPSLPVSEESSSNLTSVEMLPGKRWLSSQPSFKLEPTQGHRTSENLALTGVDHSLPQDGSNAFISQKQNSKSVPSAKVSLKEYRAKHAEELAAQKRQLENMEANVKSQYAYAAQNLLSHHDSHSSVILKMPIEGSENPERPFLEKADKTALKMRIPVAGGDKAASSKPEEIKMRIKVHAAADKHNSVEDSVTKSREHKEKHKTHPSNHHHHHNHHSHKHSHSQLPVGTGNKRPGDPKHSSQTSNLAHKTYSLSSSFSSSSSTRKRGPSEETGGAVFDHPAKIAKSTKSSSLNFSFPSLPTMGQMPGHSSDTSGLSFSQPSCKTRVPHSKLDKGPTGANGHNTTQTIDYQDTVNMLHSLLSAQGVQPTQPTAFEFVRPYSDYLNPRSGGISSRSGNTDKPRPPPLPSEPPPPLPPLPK
CDK9/cyclin T1, sequence (P50750 whole entry): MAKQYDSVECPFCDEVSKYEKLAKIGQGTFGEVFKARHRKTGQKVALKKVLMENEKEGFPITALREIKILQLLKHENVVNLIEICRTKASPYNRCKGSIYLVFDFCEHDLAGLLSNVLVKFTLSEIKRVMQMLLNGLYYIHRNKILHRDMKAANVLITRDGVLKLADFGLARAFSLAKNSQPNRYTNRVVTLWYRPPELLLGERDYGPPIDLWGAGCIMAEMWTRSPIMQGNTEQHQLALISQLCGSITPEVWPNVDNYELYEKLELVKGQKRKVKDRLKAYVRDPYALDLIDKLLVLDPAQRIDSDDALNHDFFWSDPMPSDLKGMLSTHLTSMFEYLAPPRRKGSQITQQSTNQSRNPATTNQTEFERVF

HT-29 = assay: Growth inhibition of human HT-29 cells incubated for 48 hrs by CCK-8 assay; type: functional
[2] = target: CDK9/cyclin T1 (Homo sapiens) (UniProt O60563+P50750); assay: Inhibition of CDK9/Cyclin T1 (unknown origin) using PDKtide substrate at 500 nM incubated for 60 mins by ADP-Glo kinase assay relative to control; type: protein-complex assay
[3] = Intrinsic clearance in human liver microsomes at 100 uM measured upto 60 mins in presence of NADPH by LC-MS/MS analysis; type: ADME, Microsome; details: 1 h
[4] = target: Cyclin-dependent kinase 2 (Homo sapiens, UniProt P24941); assay: Inhibition of CDK2 (unknown origin)
CYP2D6 = CYP2D6 (Homo sapiens, UniProt P10635); assay: Inhibition of CYP2D6 in human liver microsomes using quinidine as […] at 10 uM preincubated for 10 mins followed by NADPH addition measured after 15 mins by LC-MS/MS analysis relative to control; type: ADME, Microsome; details: time 25 min
CYP2D6, sequence (P10635 whole entry): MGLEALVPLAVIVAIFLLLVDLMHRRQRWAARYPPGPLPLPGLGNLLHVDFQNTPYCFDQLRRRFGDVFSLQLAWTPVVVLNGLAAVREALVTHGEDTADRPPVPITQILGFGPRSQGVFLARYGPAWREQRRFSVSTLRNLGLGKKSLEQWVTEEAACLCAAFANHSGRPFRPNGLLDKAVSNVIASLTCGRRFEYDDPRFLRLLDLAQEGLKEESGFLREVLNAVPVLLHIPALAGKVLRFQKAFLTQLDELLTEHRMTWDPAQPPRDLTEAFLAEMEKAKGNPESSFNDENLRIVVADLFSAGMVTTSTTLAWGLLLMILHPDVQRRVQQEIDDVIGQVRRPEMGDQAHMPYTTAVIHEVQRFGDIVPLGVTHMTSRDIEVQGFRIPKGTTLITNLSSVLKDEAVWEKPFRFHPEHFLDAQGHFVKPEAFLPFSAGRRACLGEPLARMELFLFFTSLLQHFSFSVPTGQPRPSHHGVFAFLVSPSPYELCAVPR

[5] = Half life in human plasma measured upto 120 mins by LC-MS/MS analysis; type: ADME, cell-free
[6] = target: Cyclin-dependent kinase 8 (Homo sapiens, UniProt P49336); assay: Inhibition of CDK8 (unknown origin)
Cyclin-dependent kinase 8, sequence (P49336 whole entry): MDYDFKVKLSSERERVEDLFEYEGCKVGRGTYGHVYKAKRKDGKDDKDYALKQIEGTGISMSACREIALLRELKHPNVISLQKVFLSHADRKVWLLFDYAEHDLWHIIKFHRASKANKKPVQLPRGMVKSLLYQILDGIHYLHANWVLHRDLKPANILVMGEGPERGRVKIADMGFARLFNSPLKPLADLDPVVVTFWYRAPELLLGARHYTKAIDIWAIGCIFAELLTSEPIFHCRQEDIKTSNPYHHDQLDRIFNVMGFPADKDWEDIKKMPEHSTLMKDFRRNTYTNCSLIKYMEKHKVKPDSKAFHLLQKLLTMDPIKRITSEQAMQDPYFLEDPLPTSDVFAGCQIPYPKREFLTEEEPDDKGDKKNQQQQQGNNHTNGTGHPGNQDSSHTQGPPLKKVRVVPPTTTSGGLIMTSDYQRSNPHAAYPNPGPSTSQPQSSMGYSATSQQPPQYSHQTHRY

CYP1A2 = target: T1, CYP1A2 (Homo sapiens, UniProt P05177); assay: Inhibition of CYP1A2 in human liver microsomes using alpha-naphthoflavone as […] at 10 uM preincubated for 10 mins followed by NADPH addition measured after 15 mins by LC-MS/MS analysis relative to control; type: ADME, Microsome; details: time 25 min
T1 sequence (P05177 whole entry): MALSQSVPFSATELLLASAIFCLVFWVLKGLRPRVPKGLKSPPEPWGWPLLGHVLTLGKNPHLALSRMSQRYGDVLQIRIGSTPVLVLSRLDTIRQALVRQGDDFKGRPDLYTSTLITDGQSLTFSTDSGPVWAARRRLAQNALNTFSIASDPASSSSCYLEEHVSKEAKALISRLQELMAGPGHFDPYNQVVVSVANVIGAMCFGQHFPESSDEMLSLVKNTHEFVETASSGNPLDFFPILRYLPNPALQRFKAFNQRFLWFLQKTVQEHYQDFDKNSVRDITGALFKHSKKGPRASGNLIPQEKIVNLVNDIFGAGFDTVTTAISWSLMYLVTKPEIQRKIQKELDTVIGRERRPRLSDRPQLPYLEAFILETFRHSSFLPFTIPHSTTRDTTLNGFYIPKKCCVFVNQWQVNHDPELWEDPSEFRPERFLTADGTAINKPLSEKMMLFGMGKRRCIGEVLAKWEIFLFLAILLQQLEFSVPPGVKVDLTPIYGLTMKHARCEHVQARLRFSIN

[7] = target: Cyclin-dependent kinase 4 (Homo sapiens, UniProt P11802); assay: Inhibition of CDK4 (unknown origin)
CYP3A4 = CYP3A4 (Homo sapiens, UniProt P08684); assay: Inhibition of CYP3A4 in human liver microsomes using ketoconazole as […] at 10 uM preincubated for 10 mins followed by NADPH addition measured after 15 mins by LC-MS/MS analysis relative to control; type: ADME, Microsome; details: probe ketoconazole, time 25 min
CYP3A4, sequence (P08684 whole entry): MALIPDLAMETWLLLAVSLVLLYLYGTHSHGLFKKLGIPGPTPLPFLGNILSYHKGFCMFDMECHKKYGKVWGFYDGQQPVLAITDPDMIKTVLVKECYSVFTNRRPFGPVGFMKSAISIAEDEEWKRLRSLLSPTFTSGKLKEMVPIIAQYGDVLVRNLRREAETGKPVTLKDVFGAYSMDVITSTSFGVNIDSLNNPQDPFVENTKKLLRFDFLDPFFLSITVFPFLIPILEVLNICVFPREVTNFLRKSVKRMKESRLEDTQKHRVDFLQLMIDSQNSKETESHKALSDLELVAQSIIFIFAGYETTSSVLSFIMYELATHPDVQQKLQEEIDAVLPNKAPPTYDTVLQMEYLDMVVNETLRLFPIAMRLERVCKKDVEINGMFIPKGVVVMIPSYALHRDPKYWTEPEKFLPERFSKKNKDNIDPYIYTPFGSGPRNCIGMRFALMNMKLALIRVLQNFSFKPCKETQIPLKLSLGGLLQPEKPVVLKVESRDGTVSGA

[8] = target: Cyclin-dependent kinase 9 (Homo sapiens, UniProt P50750); assay: Inhibition of CDK9 (unknown origin)
Cyclin-dependent kinase 9, sequence (P50750 whole entry): as the sequence (P50750 whole entry) above

[9] = Stability in human liver microsomes assessed as compound remaining at 100 uM measured upto 60 mins in presence of NADPH by LC-MS/MS analysis; type: ADME, Microsome; details: read-out: Stability
CYP2C9 = CYP2C9 (Homo sapiens, UniProt P11712); assay: Inhibition of CYP2C9 in human liver microsomes using sulfaphenazole as […] at 10 uM preincubated for 10 mins followed by NADPH addition measured after 15 mins by LC-MS/MS analysis relative to control; type: ADME, Microsome; details: probe sulfaphenazole, time 25 min
[10] = Intrinsic microsomal clearance in human liver microsomes at 100 uM measured upto 60 mins in presence of NADPH by LC-MS/MS analysis; type: ADME, Microsome; details: read-out: CLH
[11] = target: Cyclin-dependent kinase 7 (Homo sapiens, UniProt P50613); assay: Inhibition of CDK7 (unknown origin)
CYP2C19 = CYP2C19 (Homo sapiens, UniProt P33261); assay: Inhibition of CYP2C19 in human liver microsomes using benzylnirvanol as […] at 10 uM preincubated for 10 mins followed by NADPH addition measured after 15 mins by LC-MS/MS analysis relative to control; type: ADME, Microsome; details: probe benzylnirvanol, time 25 min
[12] = target: Cyclin-dependent kinase 12 (Homo sapiens, UniProt Q9NYV4); assay: Inhibition of CDK12 (unknown origin)
Cyclin-dependent kinase 12, sequence (Q9NYV4 whole entry): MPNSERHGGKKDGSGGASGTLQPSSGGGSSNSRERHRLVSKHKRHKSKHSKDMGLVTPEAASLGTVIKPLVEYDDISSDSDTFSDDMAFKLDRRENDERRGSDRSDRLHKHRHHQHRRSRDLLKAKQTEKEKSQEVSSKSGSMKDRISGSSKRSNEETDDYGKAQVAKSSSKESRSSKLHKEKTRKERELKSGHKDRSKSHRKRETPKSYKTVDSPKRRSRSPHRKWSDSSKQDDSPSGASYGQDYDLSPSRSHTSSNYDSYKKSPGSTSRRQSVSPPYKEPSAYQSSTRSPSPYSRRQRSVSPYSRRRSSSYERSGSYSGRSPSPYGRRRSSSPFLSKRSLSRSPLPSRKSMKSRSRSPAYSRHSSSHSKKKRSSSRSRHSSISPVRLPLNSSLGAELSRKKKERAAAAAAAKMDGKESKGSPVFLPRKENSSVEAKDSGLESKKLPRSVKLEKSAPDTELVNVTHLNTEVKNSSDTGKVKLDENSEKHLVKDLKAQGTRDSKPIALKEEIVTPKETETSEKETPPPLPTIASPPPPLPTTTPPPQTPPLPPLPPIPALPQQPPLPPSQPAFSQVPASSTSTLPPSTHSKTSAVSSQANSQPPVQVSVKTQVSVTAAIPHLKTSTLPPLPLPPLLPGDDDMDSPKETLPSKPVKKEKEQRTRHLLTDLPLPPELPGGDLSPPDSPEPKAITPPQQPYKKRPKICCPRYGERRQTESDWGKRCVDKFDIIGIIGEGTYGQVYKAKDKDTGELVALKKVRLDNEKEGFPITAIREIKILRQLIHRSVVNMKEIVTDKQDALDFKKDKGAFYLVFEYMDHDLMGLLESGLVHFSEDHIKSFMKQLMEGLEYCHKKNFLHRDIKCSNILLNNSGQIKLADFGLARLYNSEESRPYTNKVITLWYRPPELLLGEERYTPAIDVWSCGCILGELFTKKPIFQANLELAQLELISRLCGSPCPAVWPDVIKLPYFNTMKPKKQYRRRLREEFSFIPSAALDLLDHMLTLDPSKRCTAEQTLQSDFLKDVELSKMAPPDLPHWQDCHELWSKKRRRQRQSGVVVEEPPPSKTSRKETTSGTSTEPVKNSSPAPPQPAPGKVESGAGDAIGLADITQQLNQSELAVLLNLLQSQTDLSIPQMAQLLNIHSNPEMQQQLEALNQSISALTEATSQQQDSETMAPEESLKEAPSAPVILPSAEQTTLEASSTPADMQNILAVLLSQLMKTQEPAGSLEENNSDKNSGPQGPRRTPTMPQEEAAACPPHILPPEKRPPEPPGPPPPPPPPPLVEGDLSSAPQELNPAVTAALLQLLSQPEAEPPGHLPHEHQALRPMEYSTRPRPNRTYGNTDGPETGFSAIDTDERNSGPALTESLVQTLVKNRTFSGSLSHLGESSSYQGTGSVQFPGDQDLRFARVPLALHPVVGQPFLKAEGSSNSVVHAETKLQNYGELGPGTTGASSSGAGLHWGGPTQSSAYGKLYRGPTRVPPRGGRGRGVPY

[13] = target: Cyclin-dependent kinase 1 (Homo sapiens, UniProt P06493); assay: Inhibition of CDK1 (unknown origin)
Cyclin-dependent kinase 1, sequence (P06493 whole entry): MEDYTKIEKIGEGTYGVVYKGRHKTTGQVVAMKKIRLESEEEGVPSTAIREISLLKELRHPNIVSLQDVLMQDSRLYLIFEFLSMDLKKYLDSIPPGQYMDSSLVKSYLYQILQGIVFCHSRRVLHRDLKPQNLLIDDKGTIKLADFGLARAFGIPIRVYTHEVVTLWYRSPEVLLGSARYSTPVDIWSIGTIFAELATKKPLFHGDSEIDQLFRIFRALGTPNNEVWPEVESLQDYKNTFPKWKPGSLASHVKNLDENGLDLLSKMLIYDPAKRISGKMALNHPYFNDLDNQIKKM

[14] = Half life in human liver microsomes at 100 uM measured upto 60 mins in presence of NADPH by LC-MS/MS analysis; type: ADME, Microsome
[15] = target: Cyclin-dependent kinase 6 (Homo sapiens, UniProt Q00534); assay: Inhibition of CDK6 (unknown origin)
Cyclin-dependent kinase 6, sequence (Q00534 whole entry): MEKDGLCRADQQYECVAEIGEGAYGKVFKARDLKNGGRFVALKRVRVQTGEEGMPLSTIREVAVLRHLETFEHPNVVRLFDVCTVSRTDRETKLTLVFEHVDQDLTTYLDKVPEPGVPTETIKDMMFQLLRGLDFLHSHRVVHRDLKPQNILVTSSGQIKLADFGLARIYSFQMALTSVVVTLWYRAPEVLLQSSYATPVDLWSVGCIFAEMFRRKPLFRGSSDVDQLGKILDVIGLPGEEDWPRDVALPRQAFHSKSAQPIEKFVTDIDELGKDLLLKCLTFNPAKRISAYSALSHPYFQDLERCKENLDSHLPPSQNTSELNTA

[16] = target: Cyclin-dependent kinase 5 (Homo sapiens, UniProt Q00535); assay: Inhibition of CDK5 (unknown origin)
Cyclin-dependent kinase 5, sequence (Q00535 whole entry): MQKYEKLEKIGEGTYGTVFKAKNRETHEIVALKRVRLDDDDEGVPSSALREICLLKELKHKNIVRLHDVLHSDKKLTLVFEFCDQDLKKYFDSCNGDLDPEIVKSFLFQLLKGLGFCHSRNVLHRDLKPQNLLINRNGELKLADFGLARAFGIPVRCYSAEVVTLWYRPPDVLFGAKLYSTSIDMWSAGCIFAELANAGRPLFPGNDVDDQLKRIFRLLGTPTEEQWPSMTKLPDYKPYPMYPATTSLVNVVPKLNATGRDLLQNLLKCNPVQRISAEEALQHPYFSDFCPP

HCT-116 [17] = assay: Inhibition of colony formation in human HCT-116 cells assessed as reduction in colony number incubated for 14 days by crystal violet staining assay; type: functional, cell-based; details: time 14.0 day
HCT-116 [18] = assay: Antitumor activity against human HCT-116 cells xenografted in BALB/c mouse assessed as tumor growth inhibition at 50 mg/kg,po administrated once daily for 3 weeks; type: functional, organism-based

Row | SMILES | GI50 (HCT-116 [1]) [nM] | IC50 (CDK9/cyclin T1) [nM] | GI50 (HT-29) [nM] | inhibition [2] [%] | other results
1 | CCN1CCN(C(=O)c2ccnc(Nc3cc(-c4ccc5nnn(C(C)C)c5c4)ccn3)c2)CC1 | 60 | 3.92 | 510 |  | 
2 | CC(C)n1nnc2ccc(-c3ccnc(Nc4cc(C(=O)N5CCN(C)CC5)ccn4)c3)cc21 | 80 | 3.44 | 770 |  | 
3 | CC(C)(C)n1nnc2ccc(-c3ccnc(Nc4ccc(C(=O)N5CCOCC5)cc4)c3)cc21 |  |  |  | 73.5 | 
4 | CC(C)N1CCN(C(=O)c2ccc(Nc3cc(-c4ccc5nnn(C(C)C)c5c4)ccn3)nc2)CC1 | 330 | 4.08 | 80 |  | 
5 | O=C(c1ccc(Nc2cc(-c3ccc4nnn(C5CCCC5)c4c3)ccn2)cc1)N1CCOCC1 |  |  |  | 81.2 | 
6 | COc1cc(C(=O)N2CCOCC2)ccc1Nc1cc(-c2ccc3nnn(C(C)(C)C)c3c2)ccn1 |  |  |  | 28.1 | 
7 | O=C(c1ccc(Nc2cc(-c3ccc4nnn(C5CCCC5)c4c3)ccn2)nc1)N1CCOCC1 |  | 9.92 |  | 99.7 | 
8 | Cc1ncc(-c2ccnc(Nc3ccc(S(C)(=O)=O)cc3)n2)n1C(C)C [AZD-5438] | 450 |  | 960 |  | inhibition (HCT-116 [17]): Dose-Dependent Effect; Activity (HCT-116 [18]): Active
9 | CC(C)(C)n1nnc2ccc(-c3ccnc(Nc4ccc(C(=O)N5CCOCC5)cc4C(F)(F)F)c3)cc21 |  |  |  | 6.51 | 
10 | O=C(c1ccc(Nc2cc(-c3ccc4nnn(C5CCCC5)c4c3)ccn2)c(C(F)(F)F)c1)N1CCOCC1 |  |  |  | 47.1 | 
11 | CC(C)n1nnc2ccc(-c3ccnc(Nc4ccc(C(=O)N5CCOCC5)cc4C(F)(F)F)c3)cc21 |  |  |  | 11.4 | 
12 | CC(C)n1nnc2ccc(-c3ccnc(Nc4ccc(C(=O)N5CCOCC5)cc4F)c3)cc21 |  |  |  | 65.3 | 
13 | CC(C)(C)n1nnc2ccc(-c3ccnc(Nc4ccc(C(=O)N5CCOCC5)cc4F)c3)cc21 |  |  |  | 50.3 | 
14 | CC(C)n1nnc2ccc(-c3ccnc(Nc4ccc(C(=O)N5CCCC5)cn4)c3)cc21 | 310 | 6.62 | 350 |  | 
15 | CC(C)n1nnc2ccc(-c3ccnc(Nc4ccc(C(=O)N5CCNC(=O)C5)cn4)c3)cc21 | 90 | 2.3 | 300 |  | 
16 | CC(C)n1nnc2ccc(-c3ccnc(Nc4ccc(C(=O)N5CCCN(C)CC5)cn4)c3)cc21 | 280 | 3.05 | > 2000 |  | 
17 | O=C(c1ccc(Nc2cc(-c3ccc4nnn(C5CCCC5)c4c3)ccn2)c(F)c1)N1CCOCC1 |  |  |  | 12.9 | 
18 | CC(C)n1nnc2ccc(-c3ccnc(Nc4cc(C(=O)N5CCOCC5)ccn4)c3)cc21 | 70 | 3.06 | 650 |  | 

The next lines start with results.

Row | GI50 (HCT-116 [1]) [nM] | IC50 (CDK9/cyclin T1) [nM] | GI50 (HT-29) [nM] | inhibition [2] [%] | SMILES | other results
19 |  | 9.73 |  | 98.9 | CC(C)(C)n1nnc2ccc(-c3ccnc(Nc4ccc(C(=O)N5CCOCC5)cn4)c3)cc21 | 
20 |  |  |  | 16.3 | COc1cc(C(=O)N2CCOCC2)ccc1Nc1cc(-c2ccc3nnn(C4CCCCC4)c3c2)ccn1 | 
21 | 350 | 9.43 | 220 | 101 | CC(C)n1nnc2ccc(-c3ccnc(Nc4ccc(C(=O)N5CCOCC5)cn4)c3)cc21 | 
22 |  | 13.2 |  | 98 | O=C(c1ccc(Nc2cc(-c3ccc4nnn(C5CCCCC5)c4c3)ccn2)nc1)N1CCOCC1 | 
23 | 40 | 3.37 | 410 |  | CC(C)N1CCN(C(=O)c2ccnc(Nc3cc(-c4ccc5nnn(C(C)C)c5c4)ccn3)c2)CC1 | CLH [3]: 158.9 µL/min/mg; IC50 [4]: 167 nM; inhibition at 0.25 h, 10 µM (CYP2D6): 7.1%; half-life [5]: > 289 min; IC50 [6]: > 500 nM; inhibition at 0.25 h, 10 µM (CYP1A2): 25.1%; IC50 [7]: > 500 nM; inhibition at 0.25 h, 10 µM (CYP3A4): 15.7%; IC50 [8]: 3.3 nM; remaining at 1 h, 100 µM [9]: 0.5%; inhibition at 0.25 h, 10 µM (CYP2C9): 56.3%; microsomal CLint at 100 µM [10]: 177 µL/min/mg; IC50 [11]: > 500 nM; inhibition at 0.25 h, 10 µM (CYP2C19): 48.3%; IC50 [12]: > 500 nM; IC50 [13]: 125 nM; half-life at 100 µM [14]: 7.8 min; IC50 [15]: 33.1 nM; IC50 [16]: > 500 nM
24 |  |  |  | 23.5 | COc1cc(C(=O)N2CCOCC2)ccc1Nc1cc(-c2ccc3nnn(C4CCCC4)c3c2)ccn1 | 
25 | 250 | 4.39 | 230 |  | CC(C)n1nnc2ccc(-c3ccnc(Nc4ccc(C(=O)N5CCN(C)CC5)cn4)c3)cc21 | 
26 |  |  |  | 0.49 | O=C(c1ccc(Nc2cc(-c3ccc4nnn(C5CCCCC5)c4c3)ccn2)c(C(F)(F)F)c1)N1CCOCC1 | 
27 | 520 | 1.94 | > 2000 |  | CC(C)n1nnc2ccc(-c3ccnc(Nc4cc(C(=O)N5CCNC(=O)C5)ccn4)c3)cc21 | 
28 |  |  |  | 76 | O=C(c1ccc(Nc2cc(-c3ccc4nnn(C5CCCCC5)c4c3)ccn2)cc1)N1CCOCC1 | 
29 |  |  |  | 83 | CC(C)n1nnc2ccc(-c3ccnc(Nc4ccc(C(=O)N5CCOCC5)cc4)c3)cc21 | 
30 | 80 | 1.32 | 420 |  | CC(C)n1nnc2ccc(-c3ccnc(Nc4cc(C(=O)N5CCCC5)ccn4)c3)cc21 | CLH [3]: 71.8 µL/min/mg; IC50 [4]: 134 nM; inhibition at 0.25 h, 10 µM (CYP2D6): 0%; half-life [5]: > 289 min; IC50 [6]: > 500 nM; inhibition at 0.25 h, 10 µM (CYP1A2): 12.2%; IC50 [7]: 35.6 nM; inhibition at 0.25 h, 10 µM (CYP3A4): 0%; IC50 [8]: 1.3 nM; remaining at 1 h, 100 µM [9]: 9%; inhibition at 0.25 h, 10 µM (CYP2C9): 29.6%; microsomal CLint at 100 µM [10]: 79.8 µL/min/mg; IC50 [11]: > 500 nM; inhibition at 0.25 h, 10 µM (CYP2C19): 56.1%; IC50 [12]: > 500 nM; IC50 [13]: 161 nM; half-life at 100 µM [14]: 17.4 min; IC50 [15]: 11.5 nM; IC50 [16]: > 500 nM
31 |  |  |  | 41.7 | COc1cc(C(=O)N2CCOCC2)ccc1Nc1cc(-c2ccc3nnn(C(C)C)c3c2)ccn1 | 
32 |  |  |  | 41.1 | O=C(c1ccc(Nc2cc(-c3ccc4nnn(C5CCCCC5)c4c3)ccn2)c(F)c1)N1CCOCC1 | 
